Data: patent publication US20130231393A1, “USE OF SQUARAMIDE IN THE PREVENTION AND/OR TREATMENT OF ROSACEA” (GALDERMA RESEARCH & DEVELOPMENT, priority 2010, published 2013)

Legend:
[1] = target: T1, CXCR2 (Homo sapiens, UniProt P25025); assay: β-arrestin2 recruitment assay, antagonism of CXCL8 stimulation (PathHunter HEK293 hCXCR2 b-arrestin); format: cell-based; conditions: PathHunter HEK293 hCXCR2 b-arrestin cells, CXCL8-stimulated
T1 sequence (P25025 1-360): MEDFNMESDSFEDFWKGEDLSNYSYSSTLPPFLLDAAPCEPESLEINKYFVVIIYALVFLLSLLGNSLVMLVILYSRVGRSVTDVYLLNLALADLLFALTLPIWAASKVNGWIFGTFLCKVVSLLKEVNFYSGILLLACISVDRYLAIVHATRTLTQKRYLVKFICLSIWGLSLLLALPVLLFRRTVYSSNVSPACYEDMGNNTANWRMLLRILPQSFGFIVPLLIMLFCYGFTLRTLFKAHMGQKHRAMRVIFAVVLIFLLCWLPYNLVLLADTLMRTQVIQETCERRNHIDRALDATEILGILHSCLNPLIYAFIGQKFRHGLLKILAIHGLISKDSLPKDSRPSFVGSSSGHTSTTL
Protocol: (§1) Antagonism of CXCL8-Stimulated β-Arrestin2 Recruitment. […] To monitor direct interaction of CXCR2 or CXCR1 with β-arrestin2, we used a β-arrestin2 recruitment assay for CXCR2 or CXCR1 based on enzyme complementation of β-galactosidase (Olson and Eglen, 2007), as established by DiscoveRx Corporation. […] All CXCR2-antagonists are tested in dose-depedant manner (firsty dose 10 μM).
(§2) PathHunter HEK293-hCXCR2 b-arrestin cells or U2OS hCXCR1 b-arrestin cells (both from DiscoveRx Corporation) were plated out overnight at 10,000 cells/well (384-well format) in 50 μl of Opti MEM I+1% bovine serum albumin. Cells were treated with CXR2 antogonist or vehicule (Opti MEM I) and CXCL-8 at the same time for 90 min.; thereafter, 25 μl of PathHunter Detection Reagents (DiscoveRx Corporation) was added. After an incubation of 60 min at room temperature, β-galactosidase-induced luminescence upon β-arrestin-CXCR1/2 interaction was measured in an TopCount Reader (Perkin Elmer). Functional data were evaluated by a nonlinear curve fitting procedure using XLFit4 (IDBS).

[2] = target: T2, CXCR1 (Homo sapiens, UniProt P25024); assay: β-arrestin2 recruitment assay, antagonism of CXCL8 stimulation (U2OS hCXCR1 b-arrestin); format: cell-based; conditions: U2OS hCXCR1 b-arrestin cells, CXCL8-stimulated
T2 construct: β-galactosidase enzyme-complementation fragment (PathHunter system); host or cells: U2OS (U2OS hCXCR1 b-arrestin)
T2 sequence (P25024 1-350): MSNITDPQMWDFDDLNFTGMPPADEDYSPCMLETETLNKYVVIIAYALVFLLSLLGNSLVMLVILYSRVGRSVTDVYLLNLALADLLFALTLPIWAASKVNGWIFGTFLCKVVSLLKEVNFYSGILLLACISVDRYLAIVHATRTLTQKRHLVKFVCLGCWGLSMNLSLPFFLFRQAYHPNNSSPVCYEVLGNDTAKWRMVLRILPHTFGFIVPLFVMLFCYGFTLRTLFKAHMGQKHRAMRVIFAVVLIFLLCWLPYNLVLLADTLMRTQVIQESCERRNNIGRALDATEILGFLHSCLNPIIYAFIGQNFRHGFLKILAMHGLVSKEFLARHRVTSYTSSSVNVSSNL
Protocol: as §1, §2

[3] = system: hairless SKH1 mice; assay: RTX-induced vasodilation in a neurogenic skin inflammation model (laser Doppler perfusion imaging); format: in vivo; conditions: capsazepine at 5%, topical; RTX 0.03% on the back of SKH1 mice
Protocol: The animal model of neurogenic skin inflammation was induced by a unique topical application of resiniferatoxin (RTX), 0.03% on the back of hairless SKH1 mice. RTX is an ultrapotent capsaicin analog and RTX exposure evokes neuropeptides release. Most of these neuropeptides have vasodilatory properties and one component of RTX-induced neurogenic inflammation is the dermal vasodilation. In the present RTX-model, the objective assessment of the skin vasodilation was evaluated by laser Doppler perfusion imaging.
Material and Method: • Measurement of RTX-Induced Vasodilation
Adult female hairless SKH1 mice aged 7-9 weeks are obtained from Charles River (France). Anaesthesia with ketamine/xylazine is performed 10 minutes before treatment and body temperature is maintained at 35° C.-37° C. using an automated heating pad. A skin area of 1.8×1.5 cm on the back of the mouse is divided in two regions of interest. One region is treated with the vehicle, the other one with RTX 0.03%. […] The skin blood perfusion is evaluated every 2 minutes on the back of the mouse with a Laser Doppler perfusion imaging PIM3 (Perimed, France). […] Images are analysed and the yield of two parameters, the erythematous surface and the blood perfusion intensity ratio, is calculated as a relative area of vasodilation (mm^2). […] Results are expressed as mean±SEM. […]

| IC50 [1] [nM] | IC50 [2] [nM] | Structure (SMILES) | relative area of vasodilation, AUC decreased by [3] [%] |
| --- | --- | --- | --- |
| 7 | 148 | CC[C@@H](Nc1c(Nc2cccc(C(=O)N(C)C)c2O)c(=O)c1=O)c1ccccc1 [3-[3,4-Dioxo-2-((R)-1-phenyl-propylamino)-cyclobut-1-enylamino]-2-hydroxy-N,N-dimethyl-benzamide] |  |
|  |  | Oc1cc2c(cc1O)CN(C(=S)NCCc1ccc(Cl)cc1)CCC2 [capsazepine] | 13 |
